A word on the Ki: it is the dissociation constant of the complex between target and ligand, obtained from inhibition or displacement.

This assay has as its target T1, PsmtLPD1 (mtLPD1; PsL) (Lathyrus oleraceus, UniProt P31023).
T1 sequence (P31023 32-501): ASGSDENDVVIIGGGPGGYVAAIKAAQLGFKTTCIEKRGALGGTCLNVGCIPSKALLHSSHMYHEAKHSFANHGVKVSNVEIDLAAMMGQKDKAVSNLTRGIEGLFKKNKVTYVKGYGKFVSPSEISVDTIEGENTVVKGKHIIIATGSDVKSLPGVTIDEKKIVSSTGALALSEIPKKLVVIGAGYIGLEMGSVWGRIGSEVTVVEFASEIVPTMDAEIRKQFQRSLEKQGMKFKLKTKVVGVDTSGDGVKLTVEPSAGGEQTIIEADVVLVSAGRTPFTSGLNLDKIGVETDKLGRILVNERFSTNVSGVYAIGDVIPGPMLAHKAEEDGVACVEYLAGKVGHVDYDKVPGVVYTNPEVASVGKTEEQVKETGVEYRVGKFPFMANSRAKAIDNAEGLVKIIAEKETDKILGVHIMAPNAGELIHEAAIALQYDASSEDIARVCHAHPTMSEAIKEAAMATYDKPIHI
Description: spectrophotometric at […] nm, forward direction. It counts as biochemical.

For the molecule `NC(=O)C1=CN([C@@H]2O[C@H](COP(=O)(O)OP(=O)(O)OC[C@H]3O[C@@H](n4cnc5c(N)ncnc54)[C@H](O)[C@@H]3O)[C@@H](O)[C@H]2O)C=CC1` [NADH], the Ki is roughly 66.1 µM.

Source of the values: article doi:10.1101/2022.04.02.486831v1 (biorxiv, 2022).
